Experimental data taken from PubChem BioAssay (NCI).
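Tested at 5 concentrations; 48 h exposure; 96-well plates; endpoints linearly interpolated, else capped at highest concentration. GI50 marks 50% less growth. TGI: concentration producing complete growth inhibition.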

How the values were obtained:
Experiment in all cases: NCI tumour cell line growth inhibition, 48 h
OVCAR-8 ovarian = system: OVCAR-8 ovarian
OVCAR-3 ovarian = system: OVCAR-3 ovarian
SF-295 CNS = system: SF-295 CNS
NCI-H460 lung = system: NCI-H460 lung
786-0 renal = system: 786-0 renal
NCI/ADR-RES ovarian = system: NCI/ADR-RES ovarian
UACC-257 melanoma = system: UACC-257 melanoma
PC-3 prostate = system: PC-3 prostate
HCC-2998 colon = system: HCC-2998 colon
SK-MEL-2 melanoma = system: SK-MEL-2 melanoma
OVCAR-5 ovarian = system: OVCAR-5 ovarian
SF-268 CNS = system: SF-268 CNS
SK-MEL-28 melanoma = system: SK-MEL-28 melanoma
EKVX NSCLC = system: EKVX NSCLC
A498 renal = system: A498 renal
RPMI-8226 leukemia = system: RPMI-8226 leukemia
COLO 205 colon = system: COLO 205 colon
SR leukemia = system: SR leukemia
HOP-92 NSCLC = system: HOP-92 NSCLC
HCT-116 colon = system: HCT-116 colon
ACHN renal = system: ACHN renal
A549 NSCLC = system: A549 NSCLC
DU-145 prostate = system: DU-145 prostate
HL-60(TB) leukemia = system: HL-60(TB) leukemia
SNB-19 CNS = system: SNB-19 CNS
T-47D breast = system: T-47D breast
M14 melanoma = system: M14 melanoma
LOX IMVI melanoma = system: LOX IMVI melanoma
NCI-H226 lung = system: NCI-H226 lung
SW-620 colon = system: SW-620 colon
RXF 393 renal = system: RXF 393 renal
HT29 colon = system: HT29 colon
MDA-MB-231 breast = system: MDA-MB-231 breast
BT-549 breast = system: BT-549 breast
NCI-H23 lung = system: NCI-H23 lung
UO-31 renal = system: UO-31 renal
UACC-62 melanoma = system: UACC-62 melanoma
CAKI-1 renal = system: CAKI-1 renal
HS 578T breast = system: HS 578T breast
TK-10 renal = system: TK-10 renal
OVCAR-4 ovarian = system: OVCAR-4 ovarian
MCF7 breast = system: MCF7 breast
SK-OV-3 ovarian = system: SK-OV-3 ovarian
SNB-75 CNS = system: SNB-75 CNS
SK-MEL-5 melanoma = system: SK-MEL-5 melanoma
MDA-MB-435 = system: MDA-MB-435
K-562 leukemia = system: K-562 leukemia
MALME-3M melanoma = system: MALME-3M melanoma
HOP-62 NSCLC = system: HOP-62 NSCLC
IGROV1 ovarian = system: IGROV1 ovarian
KM12 colon = system: KM12 colon
MOLT-4 leukemia = system: MOLT-4 leukemia
NCI-H522 lung = system: NCI-H522 lung
CCRF-CEM leukemia = system: CCRF-CEM leukemia
SN12C renal = system: SN12C renal
SF-539 CNS = system: SF-539 CNS
HCT-15 colon = system: HCT-15 colon
U251 CNS = system: U251 CNS

## Cn1cc(-c2csc(-c3c[nH]c4ccc(F)cc34)n2)c2cccnc21
OVCAR-8 ovarian
  GI50: 2.99 µM
  TGI: 47.3 µM
OVCAR-3 ovarian
  GI50: 0.62 µM
  TGI: 17.5 µM
SF-295 CNS
  GI50: 0.755 µM
  TGI: 27 µM
NCI-H460 lung
  GI50: 0.612 µM
  TGI: > 47.4 µM
786-0 renal
  GI50: 13.9 µM
  TGI: > 68.4 µM
NCI/ADR-RES ovarian
  GI50: 0.45 µM
  TGI: > 100 µM
UACC-257 melanoma
  GI50: 3.81 µM
  TGI: > 100 µM
PC-3 prostate
  GI50: 6.94 µM
  TGI: > 60.3 µM
HCC-2998 colon
  GI50: 21.9 µM
  TGI: > 100 µM
SK-MEL-2 melanoma
  GI50: 2.78 µM
  TGI: > 29.5 µM
OVCAR-5 ovarian
  GI50: > 69.3 µM
  TGI: > 100 µM
SF-268 CNS
  GI50: 7.73 µM
  TGI: > 93.6 µM
SK-MEL-28 melanoma
  GI50: 11.4 µM
  TGI: > 100 µM
EKVX NSCLC
  GI50: 8.87 µM
  TGI: > 100 µM
A498 renal
  GI50: 18.6 µM
  TGI: > 100 µM
RPMI-8226 leukemia
  GI50: > 25.4 µM
  TGI: > 100 µM
COLO 205 colon
  GI50: 1.22 µM
  TGI: > 56.4 µM
SR leukemia
  GI50: 0.57 µM
  TGI: > 81.2 µM
HOP-92 NSCLC
  GI50: 4.25 µM
  TGI: > 48.9 µM
HCT-116 colon
  GI50: 0.729 µM
  TGI: > 100 µM
ACHN renal
  GI50: 8.87 µM
  TGI: > 100 µM
A549 NSCLC
  GI50: 1.09 µM
  TGI: > 45.4 µM
DU-145 prostate
  GI50: 14.3 µM
  TGI: > 100 µM
HL-60(TB) leukemia
  GI50: 5.85 µM
  TGI: > 100 µM
SNB-19 CNS
  GI50: 6.25 µM
  TGI: 65.7 µM
T-47D breast
  GI50: 2.33 µM
  TGI: > 73.2 µM
M14 melanoma
  GI50: 0.787 µM
  TGI: > 100 µM
LOX IMVI melanoma
  GI50: 1.45 µM
  TGI: > 100 µM
NCI-H226 lung
  GI50: 5.22 µM
  TGI: > 100 µM
SW-620 colon
  GI50: 0.749 µM
  TGI: > 100 µM
RXF 393 renal
  GI50: 5.65 µM
  TGI: > 70.5 µM
HT29 colon
  GI50: 0.355 µM
  TGI: 3.66 µM
MDA-MB-231 breast
  GI50: 5.79 µM
  TGI: > 100 µM
BT-549 breast
  TGI: > 100 µM
NCI-H23 lung
  GI50: 11.9 µM
  TGI: > 100 µM
UO-31 renal
  GI50: 5.37 µM
  TGI: 32.2 µM
UACC-62 melanoma
  GI50: 1.98 µM
  TGI: > 100 µM
CAKI-1 renal
  GI50: 1.42 µM
  TGI: > 60.8 µM
HS 578T breast
  GI50: > 56.6 µM
  TGI: > 100 µM
TK-10 renal
  GI50: 5.08 µM
  TGI: 31.6 µM
OVCAR-4 ovarian
  GI50: 12.3 µM
  TGI: > 100 µM
MCF7 breast
  GI50: 1.69 µM
  TGI: > 68.4 µM
SK-OV-3 ovarian
  GI50: 10.5 µM
  TGI: > 74.8 µM
SNB-75 CNS
  GI50: 2.61 µM
  TGI: 40 µM
SK-MEL-5 melanoma
  GI50: 1.27 µM
  TGI: > 45.3 µM
MDA-MB-435
  GI50: 0.194 µM
  TGI: 0.586 µM
K-562 leukemia
  GI50: 0.416 µM
  TGI: > 100 µM
MALME-3M melanoma
  GI50: 0.236 µM
  TGI: 8.35 µM
HOP-62 NSCLC
  GI50: 3.11 µM
  TGI: 35.2 µM
IGROV1 ovarian
  GI50: 0.804 µM
  TGI: > 39.9 µM
KM12 colon
  GI50: 0.704 µM
  TGI: > 100 µM
MOLT-4 leukemia
  GI50: 10.6 µM
  TGI: > 100 µM
NCI-H522 lung
  GI50: 0.463 µM
  TGI: 14.7 µM
CCRF-CEM leukemia
  GI50: 6.26 µM
  TGI: > 100 µM
SN12C renal
  GI50: 10.8 µM
  TGI: > 100 µM
SF-539 CNS
  GI50: 5.41 µM
  TGI: > 59.5 µM
HCT-15 colon
  GI50: 0.737 µM
  TGI: > 100 µM
U251 CNS
  GI50: 1.52 µM
  TGI: 17 µM

## COc1cc(Nc2ncc3c(C)nc(-c4cccc(C(F)(F)F)c4)n3n2)cc(OC)c1OC
OVCAR-8 ovarian
  GI50: 4.09 µM
  TGI: 8.91 µM
OVCAR-3 ovarian
  GI50: 4.28 µM
  TGI: 7.72 µM
SF-295 CNS
  GI50: 3.86 µM
  TGI: 8.15 µM
NCI-H460 lung
  GI50: 4.46 µM
  TGI: 13.6 µM
786-0 renal
  GI50: 3.96 µM
  TGI: 7.92 µM
NCI/ADR-RES ovarian
  GI50: 4.23 µM
  TGI: 11 µM
UACC-257 melanoma
  GI50: 3.88 µM
  TGI: 7.46 µM
PC-3 prostate
  GI50: 4.32 µM
  TGI: 10.6 µM
HCC-2998 colon
  GI50: 4.01 µM
  TGI: 7.86 µM
SK-MEL-2 melanoma
  GI50: 3.25 µM
  TGI: 7.28 µM
OVCAR-5 ovarian
  GI50: 3.65 µM
  TGI: 7.5 µM
SF-268 CNS
  GI50: 4.19 µM
  TGI: 8.1 µM
SK-MEL-28 melanoma
  GI50: 4.44 µM
  TGI: 8.25 µM
EKVX NSCLC
  GI50: 4.19 µM
  TGI: 8 µM
A498 renal
  GI50: 0.305 µM
  TGI: 5.86 µM
RPMI-8226 leukemia
  GI50: 6.45 µM
  TGI: 19.7 µM
COLO 205 colon
  GI50: 4.07 µM
  TGI: 7.49 µM
SR leukemia
  GI50: 6.36 µM
  TGI: 17.5 µM
HOP-92 NSCLC
  GI50: 1.74 µM
  TGI: 5.99 µM
HCT-116 colon
  GI50: 3.49 µM
  TGI: 6.73 µM
ACHN renal
  GI50: 1.95 µM
  TGI: 5.78 µM
A549 NSCLC
  GI50: 3.51 µM
  TGI: 6.98 µM
DU-145 prostate
  GI50: 3.13 µM
  TGI: 6.26 µM
HL-60(TB) leukemia
  GI50: 6.91 µM
  TGI: 16 µM
SNB-19 CNS
  GI50: 4.64 µM
  TGI: 8.51 µM
T-47D breast
  GI50: 2.95 µM
  TGI: 6.58 µM
M14 melanoma
  GI50: 4.03 µM
  TGI: 8.07 µM
LOX IMVI melanoma
  GI50: 3.74 µM
  TGI: 7.58 µM
NCI-H226 lung
  GI50: 4.14 µM
  TGI: 7.72 µM
SW-620 colon
  GI50: 3.72 µM
  TGI: 7.62 µM
RXF 393 renal
  GI50: 1.81 µM
  TGI: 5.42 µM
HT29 colon
  GI50: 4.15 µM
  TGI: 7.69 µM
MDA-MB-231 breast
  GI50: 3.33 µM
  TGI: 6.97 µM
BT-549 breast
  GI50: 4.05 µM
  TGI: 8.03 µM
NCI-H23 lung
  GI50: 4.07 µM
  TGI: 8.61 µM
UO-31 renal
  GI50: 1.82 µM
  TGI: 6.18 µM
UACC-62 melanoma
  GI50: 3.15 µM
  TGI: 6.34 µM
CAKI-1 renal
  GI50: 0.747 µM
  TGI: 13.6 µM
HS 578T breast
  GI50: 3.77 µM
  TGI: 13.6 µM
TK-10 renal
  GI50: 2.98 µM
  TGI: 6.19 µM
OVCAR-4 ovarian
  GI50: 4.48 µM
  TGI: 9.81 µM
MCF7 breast
  GI50: 4.14 µM
  TGI: 7.82 µM
SK-OV-3 ovarian
  GI50: 2.24 µM
  TGI: 6.86 µM
SNB-75 CNS
  GI50: 3.09 µM
  TGI: 8.42 µM
SK-MEL-5 melanoma
  GI50: 3.32 µM
  TGI: 6.51 µM
MDA-MB-435
  GI50: 2.58 µM
  TGI: 5.78 µM
K-562 leukemia
  GI50: 6.62 µM
  TGI: 19.6 µM
MALME-3M melanoma
  GI50: 4.39 µM
  TGI: 9.17 µM
HOP-62 NSCLC
  GI50: 3.84 µM
  TGI: 7.51 µM
IGROV1 ovarian
  GI50: 3.49 µM
  TGI: 11.2 µM
KM12 colon
  GI50: 3.05 µM
  TGI: 6.23 µM
MOLT-4 leukemia
  GI50: 6.85 µM
  TGI: 15.4 µM
NCI-H522 lung
  GI50: 4.18 µM
  TGI: 8.12 µM
CCRF-CEM leukemia
  GI50: 5.87 µM
  TGI: 19 µM
SN12C renal
  GI50: 3.54 µM
  TGI: 7.14 µM
SF-539 CNS
  GI50: 3.98 µM
  TGI: 8.34 µM
HCT-15 colon
  GI50: 3.78 µM
  TGI: 8.2 µM
U251 CNS
  GI50: 3.71 µM
  TGI: 7.06 µM
